Measured values from patent US10988477B2 (Merck Patent GmbH, priority 2018, dated 2021).

Molecular target: GCN2 kinase (Homo sapiens, UniProt Q9P2K8)
Experiment: GCN2 enzyme inhibition assay (Transcreener ADP2 fluorescence polarization)
Format: biochemical
Conditions: Enzyme activity for compounds of Formula IV; Ki(app), 280 μM ATP, 25° C.
Outline: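 Kinase activity is followed as ADP formation, measured by fluorescence polarization, using 4 nM enzyme with 280 μM ATP and 200 μM (RS)7 peptide at pH 7.5 and 25 °C for 1 h. Values come from a non-linear tight-binding fit.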

Chain of GCN2 kinase (Q9P2K8 whole entry): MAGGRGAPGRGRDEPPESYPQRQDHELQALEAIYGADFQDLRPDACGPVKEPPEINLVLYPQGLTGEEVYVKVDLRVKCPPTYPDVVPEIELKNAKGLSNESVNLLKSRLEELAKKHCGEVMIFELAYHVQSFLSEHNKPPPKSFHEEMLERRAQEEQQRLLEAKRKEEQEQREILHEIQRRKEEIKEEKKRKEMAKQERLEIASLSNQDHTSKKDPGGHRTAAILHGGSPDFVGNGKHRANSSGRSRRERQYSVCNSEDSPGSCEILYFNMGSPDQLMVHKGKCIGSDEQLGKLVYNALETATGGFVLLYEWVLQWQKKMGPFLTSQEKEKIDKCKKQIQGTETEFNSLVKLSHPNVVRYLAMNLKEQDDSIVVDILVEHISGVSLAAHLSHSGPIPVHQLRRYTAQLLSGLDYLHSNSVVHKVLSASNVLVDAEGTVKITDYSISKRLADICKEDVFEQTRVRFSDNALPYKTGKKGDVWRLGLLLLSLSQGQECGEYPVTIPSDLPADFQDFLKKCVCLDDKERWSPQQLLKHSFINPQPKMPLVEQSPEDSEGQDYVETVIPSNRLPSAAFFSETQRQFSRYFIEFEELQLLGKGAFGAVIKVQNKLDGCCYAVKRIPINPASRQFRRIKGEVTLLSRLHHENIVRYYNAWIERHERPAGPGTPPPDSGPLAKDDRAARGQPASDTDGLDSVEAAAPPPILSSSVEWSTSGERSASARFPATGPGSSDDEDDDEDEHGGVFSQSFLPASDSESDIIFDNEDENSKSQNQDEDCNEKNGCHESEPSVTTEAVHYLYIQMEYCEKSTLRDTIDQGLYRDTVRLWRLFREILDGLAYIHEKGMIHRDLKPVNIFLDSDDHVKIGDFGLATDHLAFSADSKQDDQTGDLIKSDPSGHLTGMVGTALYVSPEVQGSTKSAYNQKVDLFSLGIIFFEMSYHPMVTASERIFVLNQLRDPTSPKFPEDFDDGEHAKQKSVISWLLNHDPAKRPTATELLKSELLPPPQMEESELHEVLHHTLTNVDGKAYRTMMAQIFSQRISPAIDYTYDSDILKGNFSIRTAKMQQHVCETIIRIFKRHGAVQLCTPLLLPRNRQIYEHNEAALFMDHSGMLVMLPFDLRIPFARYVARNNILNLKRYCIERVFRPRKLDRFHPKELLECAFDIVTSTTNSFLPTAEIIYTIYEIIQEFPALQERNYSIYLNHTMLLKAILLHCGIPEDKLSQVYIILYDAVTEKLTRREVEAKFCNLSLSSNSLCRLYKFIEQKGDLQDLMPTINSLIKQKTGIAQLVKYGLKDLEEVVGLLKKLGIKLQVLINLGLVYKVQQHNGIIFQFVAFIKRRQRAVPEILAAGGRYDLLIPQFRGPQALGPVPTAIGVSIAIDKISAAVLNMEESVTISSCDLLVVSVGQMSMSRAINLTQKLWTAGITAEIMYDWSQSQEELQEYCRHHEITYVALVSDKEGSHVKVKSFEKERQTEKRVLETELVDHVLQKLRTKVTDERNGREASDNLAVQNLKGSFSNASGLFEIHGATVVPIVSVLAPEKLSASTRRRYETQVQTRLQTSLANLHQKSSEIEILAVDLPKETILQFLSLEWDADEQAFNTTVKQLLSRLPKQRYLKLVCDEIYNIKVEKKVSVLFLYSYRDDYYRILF

Row | SMILES | Ki
1 | CC(=O)N1CCN(c2ccnc(-c3cnc4cnc(-c5cccc(O)c5)cn34)n2)CC1 [IV-309, 1-(4-(2-(6-(3-Hydroxyphenyl)imidazo[1,2-a]pyrazin-3-yl)pyrimidin-4-yl)piperazin-1-yl)ethan-1-one] | 10 to 100 nM
2 | CC1CCN(c2ccnc(-c3cnc4cnc(C(F)(F)F)cn34)n2)CC1n1ccnc1 (stereo not shown) [IV-319, 3-(4-(3-(1H-Imidazol-1-yl)-4-methylpiperidin-1-yl)pyrimidin-2-yl)-6-(trifluoromethyl)imidazo[1,2-a]pyrazine] | 100 to 1000 nM
3 | CC1CCN(c2ccnc(-c3cnc4cnc(C(F)(F)F)cn34)n2)CC1n1ccnc1 (stereo not shown) [IV-320, 3-(4-(3-(1H-Imidazol-1-yl)-4-methylpiperidin-1-yl)pyrimidin-2-yl)-6-(trifluoromethyl)imidazo[1,2-a]pyrazine] | 100 to 1000 nM
4 | CC1(C)CN(c2ccnc(-c3cnc4cnc(C(F)(F)F)cn34)n2)CC(c2cn[nH]c2)N1 (stereo not shown) [IV-327, 3-(4-(3,3-Dimethyl-5-(1H-pyrazol-4-yl)piperazin-1-yl)pyrimidin-2-yl)-6-(trifluoromethyl)imidazo[1,2-a]pyrazine] | 10 to 100 nM
5 | CC(C)C1CN(c2ccnc(-c3cnc4cnc(C(F)(F)F)cn34)n2)C(C)C(c2cn[nH]c2)N1 (stereo not shown) [IV-330, 3-(4-(5-Isopropyl-2-methyl-3-(1H-pyrazol-4-yl)piperazin-1-yl)pyrimidin-2-yl)-6-(trifluoromethyl)imidazo[1,2-a]pyrazine] | 10 to 100 nM
6 | O=CNC1CCCN(c2ccnc(-c3cnc4cnc(C(F)(F)F)cn34)n2)C1 (stereo not shown) [IV-332, N-(1-(2-(6-(trifluoromethyl)imidazo[1,2-a]pyrazin-3-yl)pyrimidin-4-yl)piperidin-3-yl)formamide] | 100 to 1000 nM
7 | Brc1cn2c(-c3nccc(N4CCNC(c5c[nH]cn5)C4)n3)cnc2cn1 (stereo not shown) [IV-348, 3-(4-(3-(1H-Imidazol-4-yl)piperazin-1-yl)pyrimidin-2-yl)-6-bromoimidazo[1,2-a]pyrazine] | 10 to 100 nM
8 | Cc1nc(C2=CCCN(c3ccnc(-c4cnc5cnc(Br)cn45)n3)C2)c[nH]1 [IV-356, 6-Bromo-3-(4-(5-(2-methyl-1H-imidazol-4-yl)-3,6-dihydropyridin-1(2H)-yl)pyrimidin-2-yl)imidazo[1,2-a]pyrazine] | < 10 nM
9 | CC1CN(c2nccc(-c3cnc4cnc(Cl)cn34)n2)C(C)C(c2cn[nH]c2)N1 (stereo not shown) [IV-382, 6-Chloro-3-(2-(2,5-dimethyl-3-(1H-pyrazol-4-yl)piperazin-1-yl)pyrimidin-4-yl)imidazo[1,2-a]pyrazine] | 10 to 100 nM
10 | CC1CN(c2nccc(-c3cnc4cnc(Br)cn34)n2)C(C)C(c2cn[nH]c2)N1 (stereo not shown) [IV-383, 6-Bromo-3-(2-(2,5-dimethyl-3-(1H-pyrazol-4-yl)piperazin-1-yl)pyrimidin-4-yl)imidazo[1,2-a]pyrazine] | 10 to 100 nM
11 | CC1C(c2cn[nH]c2)OCCN1c1nccc(-c2cnc3cnc(C(F)(F)F)cn23)n1 (stereo not shown) [IV-417, 3-Methyl-2-(1H-pyrazol-4-yl)-4-(4-(6-(trifluoromethyl)imidazo[1,2-a]pyrazin-3-yl)pyrimidin-2-yl)morpholine] | < 10 nM
12 | FC(F)(F)c1cn2c(-c3nccc(N4CCCC4)n3)cnc2cn1 [IV-428, 3-(4-(Pyrrolidin-1-yl)pyrimidin-2-yl)-6-(trifluoromethyl)imidazo[1,2-a]pyrazine] | 100 to 1000 nM
13 | FC(F)(F)c1cn2c(-c3nccc(N4CCCCCC4)n3)cnc2cn1 [IV-429, 3-(4-(Azepan-1-yl)pyrimidin-2-yl)-6-(trifluoromethyl)imidazo[1,2-a]pyrazine] | 100 to 1000 nM
14 | Fc1n[nH]cc1C1=CCCN(c2ccnc(-c3cnc4cnc(C(F)(F)F)cn34)n2)C1 [IV-430, 3-(4-(5-(3-Fluoro-1H-pyrazol-4-yl)-3,6-dihydropyridin-1(2H)-yl)pyrimidin-2-yl)-6-(trifluoromethyl)imidazo[1,2-a]pyrazine] | < 10 nM
15 | OCCn1cc(-c2ccnc(-c3cnc4cnc(C(F)(F)F)cn34)n2)cn1 [IV-431, 2-(4-(2-(6-(Trifluoromethyl)imidazo[1,2-a]pyrazin-3-yl)pyrimidin-4-yl)-1H-pyrazol-1-yl)ethan-1-ol] | 100 to 1000 nM
16 | OCCC1CCCCN1c1ccnc(-c2cnc3cnc(C(F)(F)F)cn23)n1 (stereo not shown) [IV-438, 2-(1-(2-(6-(Trifluoromethyl)imidazo[1,2-a]pyrazin-3-yl)pyrimidin-4-yl)piperidin-2-yl)ethan-1-ol] | 100 to 1000 nM
17 | OCC1CCCCN1c1ccnc(-c2cnc3cnc(C(F)(F)F)cn23)n1 (stereo not shown) [IV-440, (1-(2-(6-(Trifluoromethyl)imidazo[1,2-a]pyrazin-3-yl)pyrimidin-4-yl)piperidin-2-yl)methanol] | 100 to 1000 nM
18 | OC1CCN(c2ccnc(-c3cnc4cnc(C(F)(F)F)cn34)n2)CC1 [IV-441, 1-(2-(6-(Trifluoromethyl)imidazo[1,2-a]pyrazin-3-yl)pyrimidin-4-yl)piperidin-4-ol] | 100 to 1000 nM
19 | OCC1CCCCN(c2ccnc(-c3cnc4cnc(C(F)(F)F)cn34)n2)C1 (stereo not shown) [IV-445, (1-(2-(6-(Trifluoromethyl)imidazo[1,2-a]pyrazin-3-yl)pyrimidin-4-yl)azepan-3-yl)methanol] | 100 to 1000 nM
20 | FC(F)(F)c1cn2c(-c3nccc(-c4cnn(C5CCOCC5)c4)n3)cnc2cn1 [IV-448, 3-(4-(1-(Tetrahydro-2H-pyran-4-yl)-1H-pyrazol-4-yl)pyrimidin-2-yl)-6-(trifluoromethyl)imidazo[1,2-a]pyrazine] | 100 to 1000 nM
21 | CC1NCCN(c2ccnc(-c3cnc4cnc(C(F)F)cn34)n2)C1c1cn[nH]c1 (stereo not shown) [IV-455, 6-(Difluoromethyl)-3-(4-(3-methyl-2-(1H-pyrazol-4-yl)piperazin-1-yl)pyrimidin-2-yl)imidazo[1,2-a]pyrazine] | 100 to 1000 nM
22 | CC1CC(C(N)=O)C(C)N(c2ccnc(-c3cnc4cnc(C(F)(F)F)cn34)n2)C1 (stereo not shown) [IV-464, 2,5-Dimethyl-1-(2-(6-(trifluoromethyl)imidazo[1,2-a]pyrazin-3-yl)pyrimidin-4-yl)piperidine-3-carboxamide] | < 10 nM
23 | O=C(NCCO)C1CCCN(c2ccnc(-c3cnc4cnc(C(F)(F)F)cn34)n2)C1 (stereo not shown) [IV-479, N-(2-Hydroxyethyl)-1-(2-(6-(trifluoromethyl)imidazo[1,2-a]pyrazin-3-yl)pyrimidin-4-yl)piperidine-3-carboxamide] | 100 to 1000 nM

The next lines start with the values.

Row | Ki | SMILES
24 | 10 to 100 nM | FC(F)(F)c1cn2c(-c3nccc(N4CCCC(c5ccno5)C4)n3)cnc2cn1 (stereo not shown) [IV-317, 5-(1-(2-(6-(Trifluoromethyl)imidazo[1,2-a]pyrazin-3-yl)pyrimidin-4-yl)piperidin-3-yl)isoxazole]
25 | 100 to 1000 nM | FC(F)(F)c1cn2c(-c3nccc(N4CCCC(c5ncon5)C4)n3)cnc2cn1 (stereo not shown) [IV-321, 3-(1-(2-(6-(Trifluoromethyl)imidazo[1,2-a]pyrazin-3-yl)pyrimidin-4-yl)piperidin-3-yl)-1,2,4-oxadiazole]
26 | 100 to 1000 nM | FC(F)(F)c1cn2c(-c3nccc(N4CCCC(c5ncno5)C4)n3)cnc2cn1 (stereo not shown) [IV-322, 5-(1-(2-(6-(Trifluoromethyl)imidazo[1,2-a]pyrazin-3-yl)pyrimidin-4-yl)piperidin-3-yl)-1,2,4-oxadiazole]
27 | 10 to 100 nM | FC(F)(F)c1cn2c(-c3nccc(N4CCCC(c5c[nH]cn5)C4)n3)cnc2cn1 (stereo not shown) [IV-325, 3-(4-(3-(1H-Imidazol-4-yl)piperidin-1-yl)pyrimidin-2-yl)-6-(trifluoromethyl)imidazo[1,2-a]pyrazine]
28 | 100 to 1000 nM | FC(F)(F)c1cn2c(-c3nccc(N4CCCC(c5nnc[nH]5)C4)n3)cnc2cn1 (stereo not shown) [IV-326, 3-(4-(3-(4H-1,2,4-Triazol-3-yl)piperidin-1-yl)pyrimidin-2-yl)-6-(trifluoromethyl)imidazo[1,2-a]pyrazine]
29 | 100 to 1000 nM | FC(F)(F)c1cn2c(-c3nccc(N4CCCC(c5nn[nH]n5)C4)n3)cnc2cn1 (stereo not shown) [IV-331, 3-(4-(3-(2H-Tetrazol-5-yl)piperidin-1-yl)pyrimidin-2-yl)-6-(trifluoromethyl)imidazo[1,2-a]pyrazine]
30 | 100 to 1000 nM | NC(=O)CC1CCN(c2ccnc(-c3cnc4cnc(C(F)(F)F)cn34)n2)C1 (stereo not shown) [IV-432, 2-(1-(2-(6-(Trifluoromethyl)imidazo[1,2-a]pyrazin-3-yl)pyrimidin-4-yl)pyrrolidin-3-yl)acetamide]
31 | 100 to 1000 nM | OC1CCN(c2ccnc(-c3cnc4cnc(C(F)(F)F)cn34)n2)C1 (stereo not shown) [IV-433, 1-(2-(6-(Trifluoromethyl)imidazo[1,2-a]pyrazin-3-yl)pyrimidin-4-yl)pyrrolidin-3-ol]
32 | 100 to 1000 nM | OCC1CCN(c2ccnc(-c3cnc4cnc(C(F)(F)F)cn34)n2)C1 (stereo not shown) [IV-434, (1-(2-(6-(Trifluoromethyl)imidazo[1,2-a]pyrazin-3-yl)pyrimidin-4-yl)pyrrolidin-3-yl)methanol]
33 | 100 to 1000 nM | OCC1CN(c2ccnc(-c3cnc4cnc(C(F)(F)F)cn34)n2)CCO1 (stereo not shown) [IV-446, (4-(2-(6-(Trifluoromethyl)imidazo[1,2-a]pyrazin-3-yl)pyrimidin-4-yl)morpholin-2-yl)methanol]
34 | 100 to 1000 nM | FC(F)(F)c1cn2c(-c3nccc(N4CCC(c5c[nH]cn5)C4)n3)cnc2cn1 (stereo not shown) [IV-456, 3-(4-(3-(1H-Imidazol-4-yl)pyrrolidin-1-yl)pyrimidin-2-yl)-6-(trifluoromethyl)imidazo[1,2-a]pyrazine]
35 | 100 to 1000 nM | FC(F)(F)c1cn2c(-c3nccc(N4CCC(c5cc[nH]n5)C4)n3)cnc2cn1 (stereo not shown) [IV-457, 3-(4-(3-(1H-Pyrazol-3-yl)pyrrolidin-1-yl)pyrimidin-2-yl)-6-(trifluoromethyl)imidazo[1,2-a]pyrazine]
36 | < 10 nM | Fc1n[nH]cc1C1CCCN(c2ccnc(-c3cnc4cnc(C(F)(F)F)cn34)n2)C1 (stereo not shown) [IV-473, 3-(4-(3-(5-Fluoro-1H-pyrazol-4-yl)piperidin-1-yl)pyrimidin-2-yl)-6-(trifluoromethyl)imidazo[1,2-a]pyrazine]
37 | 100 to 1000 nM | Nc1cnn(C2CCN(c3ccnc(-c4cnc5cnc(C(F)(F)F)cn45)n3)C2)c1 (stereo not shown) [IV-478, 1-(1-(2-(6-(Trifluoromethyl)imidazo[1,2-a]pyrazin-3-yl)pyrimidin-4-yl)pyrrolidin-3-yl)-1H-pyrazol-4-amine]
